From ChEMBL document CHEMBL1201862, “PubChem BioAssay data set” (2004)
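Exposure lasted 48 hours, with cells grown in 96-well plates and compounds tested at five concentrations. Here, GI50 denotes the concentration required for 50% inhibition of growth.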 Activity calls are given as the source filed them. Rule as the data show it: active = GI50 up to about 1.1 µM and inactive = higher.

What was measured:
Assay in all cases: NCI anticancer screen, dose series, 48 h
UO-31 = tested on: UO-31
UACC-62 = tested on: UACC-62
Malme-3M = tested on: Malme-3M
HOP-62 = tested on: HOP-62
IGROV-1 = tested on: IGROV-1
SK-OV-3 = tested on: SK-OV-3
SR = tested on: SR
TK-10 = tested on: TK-10
M14 = tested on: M14
A549 = tested on: A549
COLO 205 = tested on: COLO 205
SK-MEL-5 = tested on: SK-MEL-5
OVCAR-3 = tested on: OVCAR-3
EKVX = tested on: EKVX
NCI-H226 = tested on: NCI-H226
HL-60 = tested on: HL-60

Row | Compound | GI50 (UO-31) | GI50 (UACC-62) | GI50 (Malme-3M) | GI50 (HOP-62) | GI50 (IGROV-1) | GI50 (SK-OV-3) | GI50 (SR) | GI50 (TK-10) | GI50 (M14) | GI50 (A549) | GI50 (COLO 205) | GI50 (SK-MEL-5) | GI50 (OVCAR-3) | GI50 (EKVX) | GI50 (NCI-H226) | GI50 (HL-60)
1 | CCOC(=O)/C(=C/c1ccc(OC)cc1)N(CC)CC | > 100 µM (inactive) | > 100 µM (inactive) | > 100 µM (inactive) | > 100 µM (inactive) | > 100 µM (inactive) | > 100 µM (inactive) | > 100 µM (inactive) | > 100 µM (inactive) | > 100 µM (inactive) | > 100 µM (inactive) | > 100 µM (inactive) | > 100 µM (inactive) | > 100 µM (inactive) | > 100 µM (inactive) | > 100 µM (inactive) | 52.1 µM (inactive)
2 | N[C@H](C(=O)O)[C@H](Cl)CC(=O)O | > 100 µM (inactive) | > 100 µM (inactive) | > 100 µM (inactive) | > 100 µM (inactive) | > 100 µM (inactive) | > 100 µM (inactive) | – | > 100 µM (inactive) | > 100 µM (inactive) | > 100 µM (inactive) | > 100 µM (inactive) | > 100 µM (inactive) | > 100 µM (inactive) | > 100 µM (inactive) | > 100 µM (inactive) | > 100 µM (inactive)
3 | O=C1SC(c2ccccc2)(c2ccccc2)c2ccccc21 | 56.2 µM (inactive) | 68.1 µM (inactive) | > 100 µM (inactive) | > 100 µM (inactive) | > 100 µM (inactive) | > 100 µM (inactive) | – | 88.3 µM (inactive) | 64.6 µM (inactive) | 50.9 µM (inactive) | > 100 µM (inactive) | 46.3 µM (inactive) | > 100 µM (inactive) | 63.5 µM (inactive) | > 100 µM (inactive) | 41.3 µM (inactive)
4 | COC(=O)C1C(OCc2ccccc2)C2CCC1(OC)C=C2C (stereo not drawn) | > 100 µM (inactive) | 64.6 µM (inactive) | > 100 µM (inactive) | > 100 µM (inactive) | > 100 µM (inactive) | > 100 µM (inactive) | 17.8 µM (inactive) | > 74.3 µM (inactive) | 60.8 µM (inactive) | > 100 µM (inactive) | > 100 µM (inactive) | > 85.5 µM (inactive) | > 51.6 µM (inactive) | 46.9 µM (inactive) | 75.5 µM (inactive) | 10.8 µM (inactive)
5 | c1ccc2c(c1)cc(C1NCCc3nc[nH]c31)c1ccccc12 (stereo not drawn) | 33.7 µM (inactive) | 22.6 µM (inactive) | 30.6 µM (inactive) | 32.4 µM (inactive) | > 54.6 µM (inactive) | > 100 µM (inactive) | 34.3 µM (inactive) | > 100 µM (inactive) | 18.5 µM (inactive) | 54.5 µM (inactive) | 13.5 µM (inactive) | > 48 µM (inactive) | > 61.9 µM (inactive) | > 100 µM (inactive) | 27.7 µM (inactive) | 41.6 µM (inactive)
6 | [N-]=[N+]=NC1(c2ccccc2)C(=O)C(Cl)=C(c2ccccc2)N(c2ccccc2)C1=O (stereo not drawn) | 97.3 µM (inactive) | > 100 µM (inactive) | > 100 µM (inactive) | > 100 µM (inactive) | > 100 µM (inactive) | 31.3 µM (inactive) | 65.5 µM (inactive) | > 100 µM (inactive) | > 100 µM (inactive) | > 100 µM (inactive) | > 100 µM (inactive) | > 100 µM (inactive) | 65.3 µM (inactive) | > 100 µM (inactive) | – | 43.1 µM (inactive)
7 | Cc1nc(=O)[nH]c2[nH][nH]c(=O)c12 | – | > 100 µM (inactive) | > 100 µM (inactive) | > 100 µM (inactive) | > 100 µM (inactive) | > 100 µM (inactive) | > 100 µM (inactive) | > 100 µM (inactive) | > 100 µM (inactive) | > 100 µM (inactive) | > 100 µM (inactive) | – | > 100 µM (inactive) | > 100 µM (inactive) | > 100 µM (inactive) | > 100 µM (inactive)
8 | C=CC[P@]1(=O)O[C@H](c2ccccc2)[C@H](C)N1C | > 100 µM (inactive) | > 100 µM (inactive) | > 100 µM (inactive) | – | > 100 µM (inactive) | > 100 µM (inactive) | > 100 µM (inactive) | > 100 µM (inactive) | > 100 µM (inactive) | > 100 µM (inactive) | – | > 100 µM (inactive) | > 100 µM (inactive) | > 100 µM (inactive) | > 100 µM (inactive) | > 100 µM (inactive)
9 | O=C(CCc1n[nH]c(=S)o1)Nc1ccc(Cl)cc1Cl | > 100 µM (inactive) | > 100 µM (inactive) | > 100 µM (inactive) | > 100 µM (inactive) | > 100 µM (inactive) | > 100 µM (inactive) | – | > 100 µM (inactive) | > 100 µM (inactive) | > 100 µM (inactive) | > 100 µM (inactive) | > 100 µM (inactive) | > 100 µM (inactive) | > 100 µM (inactive) | > 100 µM (inactive) | 76.4 µM (inactive)
10 | FC(F)(F)C1(Cl)C(c2ccccc2)=C1c1ccccc1 | 17.9 µM (inactive) | 14 µM (inactive) | 15.1 µM (inactive) | 18.3 µM (inactive) | 15.5 µM (inactive) | 18.2 µM (inactive) | 22.3 µM (inactive) | 20.9 µM (inactive) | 12.8 µM (inactive) | 15.1 µM (inactive) | 16.6 µM (inactive) | 11.7 µM (inactive) | 17.2 µM (inactive) | 16.1 µM (inactive) | 15.5 µM (inactive) | 7.73 µM (inactive)
11 | COc1cc2c(cc1OC)-c1c3cc(O)ccc3nn[n+]1CC2 | – | > 100 µM (inactive) | – | > 100 µM (inactive) | > 100 µM (inactive) | > 100 µM (inactive) | – | > 100 µM (inactive) | > 100 µM (inactive) | > 100 µM (inactive) | > 100 µM (inactive) | > 100 µM (inactive) | > 100 µM (inactive) | > 100 µM (inactive) | > 100 µM (inactive) | > 100 µM (inactive)
12 | O=C1NC2(CCCC2)C(=O)C12CCCC2 | > 100 µM (inactive) | > 100 µM (inactive) | > 100 µM (inactive) | > 100 µM (inactive) | > 100 µM (inactive) | > 100 µM (inactive) | > 100 µM (inactive) | > 100 µM (inactive) | > 100 µM (inactive) | > 100 µM (inactive) | > 100 µM (inactive) | > 100 µM (inactive) | > 100 µM (inactive) | > 100 µM (inactive) | – | > 100 µM (inactive)
13 | CC(=O)N(C)OC(=O)CC(=O)c1ccccc1 | > 100 µM (inactive) | > 100 µM (inactive) | > 100 µM (inactive) | > 100 µM (inactive) | > 100 µM (inactive) | > 100 µM (inactive) | > 100 µM (inactive) | > 100 µM (inactive) | > 100 µM (inactive) | > 100 µM (inactive) | > 100 µM (inactive) | > 100 µM (inactive) | > 100 µM (inactive) | – | > 100 µM (inactive) | > 100 µM (inactive)
14 | COc1ccccc1NC(=O)C1=C(C)NC(C)=C(C(=O)Nc2ccccc2OC)C1c1ccc(C2C(C(=O)Nc3ccccc3OC)=C(C)NC(C)=C2C(=O)Nc2ccccc2OC)cc1 | 4.14 µM (inactive) | 1.68 µM (inactive) | 2.51 µM (inactive) | 6.35 µM (inactive) | 1.99 µM (inactive) | 13 µM (inactive) | 1.53 µM (inactive) | 11.5 µM (inactive) | 1.61 µM (inactive) | > 27.8 µM (inactive) | 3.33 µM (inactive) | 2.84 µM (inactive) | 2.29 µM (inactive) | 2.54 µM (inactive) | 3.52 µM (inactive) | 1.46 µM (inactive)
15 | N#Cc1ccccc1Sc1ccccc1N | 45.6 µM (inactive) | 50.1 µM (inactive) | 42.8 µM (inactive) | > 100 µM (inactive) | 31.7 µM (inactive) | > 100 µM (inactive) | 72.6 µM (inactive) | > 100 µM (inactive) | – | 67.3 µM (inactive) | > 100 µM (inactive) | 18.7 µM (inactive) | – | 77.1 µM (inactive) | 13 µM (inactive) | 72.6 µM (inactive)
16 | CC(C)OP(=O)(OC(C)C)/C(=N/Nc1ccc([N+](=O)[O-])cc1)NNC(=O)c1ccccc1 | 41.5 µM (inactive) | 20.5 µM (inactive) | > 100 µM (inactive) | > 100 µM (inactive) | – | – | 22.3 µM (inactive) | > 100 µM (inactive) | 33.2 µM (inactive) | 55.6 µM (inactive) | 36.1 µM (inactive) | 17.4 µM (inactive) | 34.3 µM (inactive) | > 100 µM (inactive) | 19 µM (inactive) | 19.7 µM (inactive)
17 | COc1cc2c(c(OC)c1OC)-c1ccc(SC)c(=O)cc1[C@@H](NC(=O)c1ccc(OC(C)=O)cc1)CC2 | 0.433 µM (active) | 0.0313 µM (active) | 0.0238 µM (active) | 0.0419 µM (active) | 0.0319 µM (active) | 0.0241 µM (active) | – | 0.0454 µM (active) | 0.0215 µM (active) | 0.01 µM (active) | 0.0194 µM (active) | – | 0.015 µM (active) | 0.0139 µM (active) | 0.0231 µM (active) | 0.0338 µM (active)
18 | CN(C(=O)/C=C/c1ccccc1)C1C2CN3CCC(O2)C13 (stereo not drawn) | > 100 µM (inactive) | > 100 µM (inactive) | > 100 µM (inactive) | > 100 µM (inactive) | > 100 µM (inactive) | > 100 µM (inactive) | – | > 100 µM (inactive) | > 100 µM (inactive) | > 100 µM (inactive) | > 100 µM (inactive) | > 100 µM (inactive) | > 100 µM (inactive) | > 100 µM (inactive) | > 100 µM (inactive) | > 100 µM (inactive)
